This passage reports IC50 results from patent US7566712B2, “Biaryl piperazinyl-pyridine analogues” (Neurogen Corporation, priority 2003, dated 2009).

The target in this assay is T1, human capsaicin receptor (Homo sapiens, UniProt Q8NER1).
T1 construct: pBK-CMV expression construct encoding the full length human capsaicin receptor; expressed in transfected cells
The experiment in a line: Calcium mobilization assay, determination of antagonist activity (Example 6). The class given is cell-based. Particulars: Table II; determined as described in Example 6 (antagonist activity); "*" = 1 micromolar or less. Summed up:
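Antagonism measured as inhibition of capsaicin-evoked (final concentration = EC50, from an 8-point 1 nM–3 μM curve) Fluo-3 calcium signal in stable hVR1-HEK293 cells. Test compounds at 1–5 μM final, 0.5–6 h dark preincubation at room temperature. IC50 = concentration giving 50% reduction versus agonist-only response.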
(In general: Calcium assays in cells follow changes in intracellular calcium, usually with a dye or a luminescent sensor.)

T1 sequence (Q8NER1 whole entry): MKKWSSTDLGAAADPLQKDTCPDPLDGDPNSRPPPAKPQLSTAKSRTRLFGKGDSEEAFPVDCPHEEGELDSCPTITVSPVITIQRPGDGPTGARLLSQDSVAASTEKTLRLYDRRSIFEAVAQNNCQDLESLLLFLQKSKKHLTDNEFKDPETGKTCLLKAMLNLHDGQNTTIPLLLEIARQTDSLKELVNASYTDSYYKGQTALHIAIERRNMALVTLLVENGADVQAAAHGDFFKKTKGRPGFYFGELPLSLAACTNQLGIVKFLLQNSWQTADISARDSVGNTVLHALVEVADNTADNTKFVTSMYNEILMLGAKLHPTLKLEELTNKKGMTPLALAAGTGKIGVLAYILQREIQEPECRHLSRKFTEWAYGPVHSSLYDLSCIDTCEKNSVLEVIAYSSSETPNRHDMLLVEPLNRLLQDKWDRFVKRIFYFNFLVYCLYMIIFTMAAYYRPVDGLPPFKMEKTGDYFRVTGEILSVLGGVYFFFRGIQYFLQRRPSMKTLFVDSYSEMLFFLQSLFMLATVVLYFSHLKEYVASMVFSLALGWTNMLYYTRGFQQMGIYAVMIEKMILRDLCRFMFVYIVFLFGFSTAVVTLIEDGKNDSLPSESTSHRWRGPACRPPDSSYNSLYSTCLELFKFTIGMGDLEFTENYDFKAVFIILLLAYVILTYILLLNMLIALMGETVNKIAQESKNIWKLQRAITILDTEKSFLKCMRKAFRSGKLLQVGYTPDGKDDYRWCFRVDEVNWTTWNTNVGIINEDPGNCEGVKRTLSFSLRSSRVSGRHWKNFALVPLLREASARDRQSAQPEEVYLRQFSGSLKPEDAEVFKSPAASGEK

In general, IC50 refers to the concentration needed to halve the response being measured. `CCCN1CCN(c2nc(-c3ccc(F)c(Cl)c3)cc(N3CCN(c4ncccc4Cl)C[C@H]3C)n2)CC1` [Example 779, 4-(3-chloro-4-fluorophenyl)-6-[(2R)-4-(3-chloropyridin-2-yl)-2-methylpiperazin-1-yl]-2-(4-propylpiperazin-1-yl)pyrimidine]: the IC50 is at most 1000 nM.
Next, `CC1CCN1c1nc(-c2ccc(F)c(Cl)c2)cc(N2CCN(c3ncccc3Cl)C[C@H]2C)n1` (stereo partly drawn) [Example 780, 4-(3-ohloro-4-fluorophenyi)-6-[(2R)-4-(3-chloropyridin-2-yl)-2-methylpiperazin-1-yl]-2-(2-methylazetidin-1-yl)pyrimidine]: at most 1000 nM; `CC1CCN1c1nc(-c2ccc(F)c(Cl)c2)cc(N2CCN(c3ncccc3C(F)(F)F)C[C@H]2C)n1` (stereo partly drawn) [Example 781, 4-(3-chloro-4-fluorophenyl)-2-(2-methylazetidin-1-yl)-6-{(2R)-2-methyl-4-[3-(trifluoromethyl)pyridin-2-yl]piperazin-1-yl}pyrimidine]: at most 1000 nM; `C[C@@H]1CN(c2ncccc2C(F)(F)F)CCN1c1cc(-c2ccc(F)cc2)nc(N2CCCC2)n1` [Example 782, 4-(4-fluorophenyl)-6-{(2R)-2-methyl-4-[3-(trifluoromethyl)pyridin-2-yl]piperazin-1-yl}-2-pyrrolidin-1-ylpyrirnidine]: at most 1000 nM.
In the case of `CC1CCCN1c1nc(-c2ccc(F)cc2)cc(N2CCN(c3ncccc3C(F)(F)F)C[C@H]2C)n1` (stereo partly drawn) [Example 783, 4-(4-fluorophenyl)-2-(2-methylpyrrolidin-1-yl)-6-{(2R)-2-methyl-4-[3-(trifluoromethyl)pyridin-2-yl]piperazin-1-yl}pyrimidine] it was at most 1000 nM; in that of `C[C@@H]1CN(c2ncccc2C(F)(F)F)CCN1c1cc(-c2ccc(F)cc2)nc(N2CCCCC2)n1` [Example 784, 4-(4-fluorophenyl)-6-{(2R)-2-methyl-4-[3-(trifluoromethyl)pyridin-2-yl]piperazin-1-yl}-2-piperidin-1-ylpyrimidine], at most 1000 nM.
In the case of `Cc1cc(-c2cc(N3CCN(c4ncccc4Cl)C[C@H]3C)nc(N3CCC3C)n2)ccc1F` (stereo partly drawn) [Example 785, 4-[(2R)-4-(3-chloropyridin-2-yl)-2-methylpiperazin-1-yl]-6-(4-fluoro-3-methylphenyl)-2-(2-methylazetidin-1-yl)pyrimidine], the IC50 is at most 1000 nM.
In the case of `Cc1cc(-c2cc(N3CCN(c4ncccc4C(F)(F)F)C[C@H]3C)nc(N3CCC3C)n2)ccc1F` (stereo partly drawn) [Example 786, 4-(4-fluoro-3-methyiphenyl)-2-(2-methylazetidin-1-yl)-6-{(2R)-2-methyl-4-[3-(trifluoromethyl)pyridin-2-yl]piperazin-1-yl}pyrimidine] it was at most 1000 nM; in that of `CCCN1CCN(c2nc(-c3ccc(F)c(C)c3)cc(N3CCN(c4ncccc4C(F)(F)F)C[C@H]3C)n2)CC1` [Example 787, 4-(4-fluoro-3-methylphenyl)-6-{(2R)-2-methyl-4-[3-(trifluoromethyl)pyridin-2-yl]piperazin-1-yl}-2-(4-propylpiperazin-1-yl)pyrimidine], at most 1000 nM.
Next, `CCCN1CCN(c2nc(-c3ccc(F)c(F)c3)cc(N3CCN(c4ncccc4Cl)C[C@H]3C)n2)CC1` [Example 788, 4-[(2R)-4-(3-chloropyridin-2-yl)-2-methylpiperazin-1-yl]-6-(3,4-difluorophenyl)-2-(4-propylpiperazin-1-yl)pyrimidine]: at most 1000 nM.
Consider `CN(C)C1CN(c2nc(-c3ccc(F)c(Cl)c3)cc(N3CCN(c4ncccc4C(F)(F)F)CC3)n2)C1` [Example 789, 1-(4-(3-chloro-4-fluorophenyl)-6-{4-[3-(trifluoromethyl)pyridin-2-yl]piperazin-1-yl}pyrimidin-2-yl)-N,N-dimethylazetidin-3-amine], for which the IC50 is at most 1000 nM.
With `CCN(CC)C1CN(c2nc(-c3ccc(F)c(Cl)c3)cc(N3CCN(c4ncccc4C(F)(F)F)CC3)n2)C1` [Example 790, 1-(4-(3-chloro-4-fluorophenyl)-6-{4-[3-(trifluoromethyl)pyridin-2-yl]piperazin-1-yl}pyrimidin-2-yl)-N,N-diethylazetidin-3-amine], the half-maximal inhibitory concentration (IC50) was at most 1000 nM.
Take `C[C@@H]1CN(c2ncccc2C(F)(F)F)CCN1c1cc(-c2ccc(F)c(F)c2)nc(N2CCCC2)n1` [Example 791, 4-(3,4-difluorophenyl)-6-{(2R)-2-methyl-4-[3-(trifluoromethyl)pyridin-2-yl]piperazin-1-yl}-2-pyrrolidin-1-ylpyrimidine]: the IC50 was at most 1000 nM.
In the case of `CC1CCCN1c1nc(-c2ccc(F)c(F)c2)cc(N2CCN(c3ncccc3C(F)(F)F)C[C@H]2C)n1` (stereo partly drawn) [Example 792, 4-(3,4-difluorophenyl)-2-(2-methylpyrrolidin-1-yl)-6-{(2R)-2-methyl-4-[3-(trifluoromethyl)pyridin-2-yl]piperazin-1-yl}pyrimidine] it was at most 1000 nM.
For `C[C@@H]1CN(c2ncccc2C(F)(F)F)CCN1c1cc(-c2ccc(F)c(F)c2)nc(N2CCCCC2)n1` [Example 793, 4-(3,4-difluorophenyl)-6-{(2R)-2-methyl-4-[3-(trifluoromethyl)pyridin-2-yl]piperazin-1-yl}-2-piperidin-1-ylpyrimidine], the IC50 is at most 1000 nM.
In the case of `Cc1cc(-c2cc(N3CCN(c4ncccc4C(F)(F)F)C[C@H]3C)nc(N3CCC3(C)C)n2)ccc1F` [Example 794, 2-(2,2-dimethylazetidin-1-yl)-4-(4-fluoro-3-methylphenyl)-6-{(2R)-2-methyl-4-[3-(trifluoromethyl)pyridin-2-yl]piperazin-1-yl}pyrimidine] it was at most 1000 nM.
In the case of `Cc1cc(-c2cc(N3CCN(c4ncccc4C(F)(F)F)CC3)nc(N(C)C(C)CO)n2)ccc1F` (stereo not drawn) [Example 795] it was at most 1000 nM; in that of `CC(C)c1cc(-c2cc(N3CCN(c4ncccc4C(F)(F)F)CC3)nc(N3CCCC3C)n2)ccn1` (stereo not drawn) [Example 796, 4-(2-isopropylpyridin-4-yl)-2-(2-methylpyrrolidin-1-yl)-6-{4-[3-(trifluoromethyl)pyridin-2-yl]piperazin-1-yl}pyrimidine], at most 1000 nM.
Next, `CCOC(=O)C1CCN(c2nc(-c3ccc(F)c(Cl)c3)cc(N3CCN(c4ncccc4C(F)(F)F)CC3)n2)CC1` [Example 797, ethyl 1-(4-(3-chloro-4-fluorophenyl)-6-{4-[3-(trifluoromethyl)pyridin-2-yl]piperazin-1-yl}pyrimidin-2-yl)piperidine-4-carboxylate]: at most 1000 nM; `CCOC(=O)C1CCCN(c2nc(-c3ccc(F)c(Cl)c3)cc(N3CCN(c4ncccc4C(F)(F)F)CC3)n2)C1` (stereo not drawn) [Example 798, ethyl 1-(4-(3-chloro-4-fluorophenyl)-6-{4-[3-(trifluoromethyl)pyridin-2-yl]piperazin-1-yl}pyrimidin-2-yl)piperidine-3-carboxylate]: at most 1000 nM; `O=C(O)C1CCN(c2nc(-c3ccc(F)c(Cl)c3)cc(N3CCN(c4ncccc4C(F)(F)F)CC3)n2)CC1` [Example 799, 1-(4-(3-chloro-4-fluorophenyl)-6-{4-[3-(trifluoromethyl)pyridin-2-yl]piperazin-1-yl}pyrimidin-2-yl)piperidine-4-carboxylic acid]: at most 1000 nM.
For `O=C(O)C1CCCN(c2nc(-c3ccc(F)c(Cl)c3)cc(N3CCN(c4ncccc4C(F)(F)F)CC3)n2)C1` (stereo not drawn) [Example 800, 1-(4-(3-chloro-4-fluorophenyl)-6-{4-[3-(trifluoromethyl)pyridin-2-yl]piperazin-1-yl}pyrimidin-2-yl)piperidine-3-carboxylic acid], the 50% inhibitory concentration (IC50) was at most 1000 nM.
In the case of `CC1=NCCN1c1nc(-c2ccc(F)c(Cl)c2)cc(N2CCN(c3ncccc3C(F)(F)F)CC2)n1` [Example 801, 4-(3-chloro-4-fluorophenyl)-2-(2-methyl-4,5-dihydro-1H-imidazol-1-yl)-6-{4-[3-(trifluoromethyl)pyridin-2-yl]piperazin-1-yl}pyrimidine] it was at most 1000 nM; in that of `Cc1ccc(-c2cc(N3CCN(c4ncccc4Cl)C[C@H]3C)nc(N3CCCC3)n2)cc1F` [Example 802], at most 1000 nM; in that of `Cc1ccc(-c2cc(N3CCN(c4ncccc4Cl)C[C@H]3C)nc(N3CCCC3C)n2)cc1F` (stereo partly drawn) [Example 803, 4-[(2R)-4-(3-chloropyridin-2-yl)-2-methylpiperazin-1-yl]-6-(3-fluoro-4-methylphenyl)-2-(2-methylpyrrolidin-1-yl)pyrimidine], at most 1000 nM.
Next, `Cc1ccc(-c2cc(N3CCN(c4ncccc4Cl)C[C@H]3C)nc(N3CCCCC3)n2)cc1F` [Example 804, 4-[(2R)-4-(3-chloropyridin-2-yl)-2-methylpiperazin-1-yl]-6-(3-fluoro-4-methylphenyl)-2-piperidin-1-ylpyrimidine]: at most 1000 nM.
Next, `Cc1ccc(-c2cc(N3CCN(c4ncccc4Cl)C[C@H]3C)nc(N3CCCC3)n2)cc1C` [Example 805, 4-[(2R)-4-(3-chloropyridin-2-yl)-2-methylpiperazin-1-yl]-6-(3,4-dimethylphenyl)-2-pyrrolidin-1-ylpyrimidine]: at most 1000 nM; `C[C@@H]1CN(c2ncccc2Cl)CCN1c1cc(-c2cncc(Cl)c2)nc(N2CCCC2)n1` [Example 806, 4-(5-chloropyridin-3-yl)-6-[(2R)-4-(3-chloropyridin-2-yl)-2-methylpiperazin-1-yl]-2-pyrrolidin-1-ylpyrimidine]: at most 1000 nM.
Take `CC1CCCN1c1nc(-c2cncc(Cl)c2)cc(N2CCN(c3ncccc3Cl)C[C@H]2C)n1` (stereo partly drawn) [Example 807]: the IC50 is at most 1000 nM.
Next, `Cc1ccc(-c2cc(N3CCN(c4ncccc4Cl)C[C@H]3C)nc(N3CCCC3C)n2)cc1C` (stereo partly drawn) [Example 808, 4-[(2R)-4-(3-chloropyridin-2-yl)-2-methylpiperazin-1-yl]-6-(3,4-dimethylphenyl)-2-(2-methylpyrrolidin-1-yl)pyrimidine]: at most 1000 nM.
